Biological target: T1, human Y4 receptor (Homo sapiens, UniProt P50391)
T1 construct: expressed in transfected cells
Experiment: NPY4 cAMP HTRF Agonist Assay (inhibitory cAMP assay, Gi activation by Y4 agonism)
Assay type: cell-based
Conditions: human Y4 receptor, cAMP; read-out: hY4 CAMP EC50
Summary of the method: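 Y4 agonism read as lowered forskolin-stimulated cAMP (HTRF, 1 h detection at room temperature). Stable human Y4 CHO clone, 5000 cells/well, incubated 30 min at room temperature with compounds plus forskolin and IBMX in PBS.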

T1 sequence (P50391 whole entry): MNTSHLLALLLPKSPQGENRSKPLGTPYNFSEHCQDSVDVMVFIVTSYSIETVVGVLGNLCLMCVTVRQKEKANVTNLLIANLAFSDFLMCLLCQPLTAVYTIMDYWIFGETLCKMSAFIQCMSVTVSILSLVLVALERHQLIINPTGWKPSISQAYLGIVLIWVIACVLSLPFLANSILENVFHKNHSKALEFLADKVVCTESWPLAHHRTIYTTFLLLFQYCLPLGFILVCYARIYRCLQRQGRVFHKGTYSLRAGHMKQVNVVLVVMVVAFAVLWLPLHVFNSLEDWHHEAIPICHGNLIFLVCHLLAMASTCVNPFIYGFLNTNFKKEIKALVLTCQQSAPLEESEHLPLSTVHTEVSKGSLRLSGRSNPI

SMILES	EC50 [nM]
N#Cc1cnc(N2CCC[C@H](N[C@@H]3CCCC[C@H]3Nc3cc(-c4cccc(C(N)=O)c4)ccn3)C2)nc1 [Example 430]	142
N#Cc1ncc(N2CCC[C@H](N[C@@H]3CCCC[C@H]3Nc3cc(-c4cccc(C(N)=O)c4)ccn3)C2)cn1 [Example 431]	171
C[C@]1(N[C@@H]2CCCC[C@H]2Nc2ncc(-c3cccc(C(N)=O)c3)o2)CCCN(c2ncc(C#N)cn2)C1 [Example 432]	29
N#Cc1cnc(N2C[C@@H]3C[C@H](N[C@@H]4CCCC[C@H]4Nc4ncc(-c5cccc(C(N)=O)c5)o4)[C@H]2C3)nc1 [Example 433]	144
N#Cc1ncc(N2C[C@@H]3C[C@H](N[C@@H]4CCCC[C@H]4Nc4ncc(-c5cccc(C(N)=O)c5)o4)[C@H]2C3)cn1 [Example 434]	129
C[C@]1(N[C@@H]2CCCC[C@H]2Nc2cc(-c3cccc(C(N)=O)c3)ccn2)CCCN(c2ncc(C#N)cn2)C1 [Example 435]	400
N#Cc1ncc(N2CCC[C@H](N[C@@H]3CCCC[C@H]3Nc3cc(-c4cc(F)c(F)cc4F)ccn3)C2)cn1 [Example 436]	756
N#Cc1cnc(N2CCCC(N[C@@H]3CCCC[C@H]3Nc3ncc(-c4cccc(C(N)=O)c4)o3)C2)nc1 (stereo partly drawn) [Example 437]	35
N#Cc1ncc(N2CCC[C@H](N[C@@H]3CCCC[C@H]3Nc3ncc(-c4cccc(C(N)=O)c4)o3)C2)cn1 [Example 438]	5
N#Cc1cc(N2C[C@@H]3C[C@H](N[C@@H]4CCCC[C@H]4Nc4ncc(-c5cccc(C(N)=O)c5)o4)[C@H]2C3)ncn1 [Example 439]	578
N#Cc1cnc(N2C[C@@H]3C[C@H](N[C@@H]4CCCC[C@H]4Nc4ncc(-c5ccc(OC(F)(F)F)cc5)o4)[C@H]2C3)nc1 [Example 440]	15
N#Cc1cnc(N2C[C@@H]3C[C@H](N[C@@H]4CCCC[C@H]4Nc4cc(Br)ccn4)[C@H]2C3)nc1 [Example 441]	803
N#Cc1cnc(N2C[C@@H]3C[C@H](N[C@@H]4CCCC[C@H]4Nc4cc(-c5cccc(C(N)=O)c5)ccn4)[C@H]2C3)nc1 [Example 442]	228
N#Cc1ccc(N2C[C@@H]3C[C@H](N[C@@H]4CCCC[C@H]4Nc4ncc(-c5ccc(OC(F)(F)F)cc5)o4)[C@H]2C3)nn1 [Example 443]	482
N#Cc1cc(N2C[C@@H]3C[C@H](N[C@@H]4CCCC[C@H]4Nc4ncc(-c5ccc(OC(F)(F)F)cc5)o4)[C@H]2C3)ncn1 [Example 444]	378
C[C@]1(N[C@@H]2CCCC[C@H]2Nc2ncc(-c3cccc(C(N)=O)c3)o2)CCCN(c2ccc(C(=N)NC(=O)C3CC3)nc2)C1 [Example 445]	4
C[C@]1(N[C@@H]2CCCC[C@H]2Nc2ncc(-c3cccc(C(N)=O)c3)o2)CCCN(c2ccc(C(=O)NC(=O)C3CC3)nc2)C1 [Example 446]	6
CCc1nc(-c2ccc(N3CCC[C@H](N[C@@H]4CCCC[C@H]4Nc4cc(-c5cccc(C(N)=O)c5)ccn4)C3)nc2)no1 [Example 447]	8
CCc1nc(-c2ccc(N3CCC[C@H](N[C@@H]4CCCC[C@H]4Nc4ncc(-c5cccc(C(N)=O)c5)o4)C3)nc2)no1 [Example 448]	2
C[C@]1(N[C@@H]2CCCC[C@H]2Nc2ncc(-c3cccc(C(N)=O)c3)o2)CCCN(c2ccc(-c3noc(C4CC4)n3)nc2)C1 [Example 449]	5

SMILES	EC50 [nM]
C[C@]1(N[C@@H]2CCCC[C@H]2Nc2cc(-c3cccc(C(N)=O)c3)ccn2)CCCN(c2ccc(-c3noc(C4CC4)n3)nc2)C1 [Example 450]	10
NC(=O)c1cccc(-c2ccnc(N[C@@H]3CCCC[C@H]3N[C@H]3CCCN(c4ccc(-c5noc(C6CC6)n5)cn4)C3)c2)c1 [Example 451]	4
NC(=O)c1cccc(-c2cnc(N[C@@H]3CCCC[C@H]3N[C@H]3CCCN(c4ccc(-c5noc(C6CC6)n5)cn4)C3)o2)c1 [Example 452]	3
NC(=O)c1cccc(-c2ccnc(N[C@@H]3CCCC[C@H]3N[C@H]3CCCN(c4ccc(F)cc4)C3)c2)c1 [Example 453]	41
NC(=O)c1cccc(-c2cnc(N[C@@H]3CCCC[C@H]3N[C@H]3CCCN(c4ccc(F)c(F)c4)C3)o2)c1 [Example 454]	3
COC(=O)Nc1cccc(-c2ccnc(N[C@@H]3CCCC[C@H]3N[C@H]3CCCN(c4ccc(-c5ncn(C)n5)cc4)C3)c2)c1 [Example 455]	2
Cn1cnc(-c2ccc(N3CCC[C@H](N[C@@H]4CCCC[C@H]4Nc4cc(-c5cccc(O)c5)ccn4)C3)cc2)n1 [Example 456]	28
Cn1cnc(-c2ccc(N3CCC[C@H](N[C@@H]4CCCC[C@H]4Nc4cc(-c5ccc(F)c(F)c5)ccn4)C3)cc2)n1 [Example 457]	26
COC(=O)Nc1cccc(-c2ccnc(N[C@@H]3CCCC[C@H]3N[C@H]3CCCN(c4ccc(-c5noc(C6CC6)n5)cc4)C3)c2)c1 [Example 458]	0.2
NC(=O)c1cccc(-c2cnc(N[C@@H]3CCCC[C@H]3N[C@H]3CCCN(c4ccc(OC(F)(F)F)cc4)C3)o2)c1 [Example 459]	1
Cn1nnc(-c2ccc(N3C[C@@H]4C[C@H](N[C@@H]5CCCC[C@H]5Nc5cc(-c6cccc(C(N)=O)c6)ccn5)[C@H]3C4)cc2)n1 [Example 460]	4
NC(=O)c1cccc(-c2cnc(N[C@@H]3CCCC[C@H]3N[C@H]3CCCN(c4ccc(F)cc4)C3)o2)c1 [Example 461]	55
NC(=O)c1cccc(-c2ccnc(N[C@@H]3CCCC[C@H]3N[C@H]3CCCN(c4ccc(OC(F)(F)F)cc4)C3)c2)c1 [Example 462]	8
Cc1nc(-c2ncc(N3CCC[C@H](N[C@@H]4CCCC[C@H]4Nc4cc(-c5cccc(C(N)=O)c5)ccn4)C3)cn2)no1 [Example 463]	39
CNC(=O)c1cccc(-c2ccnc(N[C@@H]3CCCC[C@H]3N[C@H]3CCCN(c4cnc(-c5noc(C)n5)nc4)C3)c2)c1 [Example 464]	42
COC(=O)Nc1cccc(-c2ccnc(N[C@@H]3CCCC[C@H]3N[C@H]3CCCN(c4cnc(-c5noc(C)n5)nc4)C3)c2)c1 [Example 465]	0.02
COC(=O)Nc1cccc(-c2cnc(N[C@@H]3CCCC[C@H]3N[C@H]3CCCN(c4cnc(-c5noc(C)n5)nc4)C3)o2)c1 [Example 466]	1
Cc1nc(-c2ncc(N3CCC[C@H](N[C@@H]4CCCC[C@H]4Nc4cc(-c5ccc(F)c(F)c5)ccn4)C3)cn2)no1 [Example 467]	2
Cc1nc(-c2ncc(N3CCC[C@H](N[C@@H]4CCCC[C@H]4Nc4cc(-c5ccc(F)cc5F)ccn4)C3)cn2)no1 [Example 468]	9
Cc1nc(-c2ncc(N3CCC[C@H](N[C@@H]4CCCC[C@H]4Nc4cc(C#N)ccn4)C3)cn2)no1 [Example 469]	96

SMILES	EC50 [nM]
NC(=O)c1cccc(-c2cnc(N[C@@H]3CCCC[C@H]3N[C@H]3C[C@@H]4C[C@H]3N(c3cnc(C(F)(F)F)cn3)C4)o2)c1 [Example 470]	162
NC(=O)c1cccc(-c2ccnc(N[C@@H]3CCCC[C@H]3N[C@H]3C[C@@H]4C[C@H]3N(c3cnc(C(F)(F)F)cn3)C4)c2)c1 [Example 471]	329
C[C@]1(N[C@@H]2CCCC[C@H]2Nc2ncc(-c3cccc(C(N)=O)c3)o2)CCCN(c2cnc(C(F)(F)F)cn2)C1 [Example 472]	9
NC(=O)c1cccc(-c2ccnc(N[C@@H]3CCCC[C@H]3N[C@H]3CCCN(c4cnc(C(F)(F)F)cn4)C3)c2)c1 [Example 473]	79
C[C@]1(N[C@@H]2CCCC[C@H]2Nc2cc(-c3cccc(C(N)=O)c3)ccn2)CCCN(c2cnc(C(F)(F)F)cn2)C1 [Example 474]	142
NC(=O)c1cccc(-c2cnc(N[C@@H]3CCCC[C@H]3N[C@H]3CCCN(c4cnc(C(F)(F)F)cn4)C3)o2)c1 [Example 475]	8
C[C@]1(N[C@@H]2CCCC[C@H]2Nc2ncc(-c3cccc(C(N)=O)c3)o2)CCCN(c2cnc(C#N)cn2)C1 [Example 476]	49
N#Cc1cnc(N2CCC[C@H](N[C@@H]3CCCC[C@H]3Nc3cc(-c4cccc(C(N)=O)c4)ccn3)C2)cn1 [Example 477]	775
N#Cc1cnc(N2CCC[C@H](N[C@@H]3CCCC[C@H]3Nc3ncc(-c4cccc(C(N)=O)c4)o3)C2)cn1 [Example 478]	25
N#Cc1ccc(N2CCCC(N[C@@H]3CCCC[C@H]3Nc3ncc(-c4cccc(C(N)=O)c4)o3)C2)nn1 (stereo partly drawn) [Example 479]	333
NC(=O)c1cccc(-c2cnc(N[C@@H]3CCCC[C@H]3N[C@H]3CCCN(c4ccc5ncnn5c4)C3)o2)c1 [Example 480]	17
NC(=O)c1cccc(-c2ccnc(N[C@@H]3CCCC[C@H]3N[C@H]3CCCN(c4ccc5ncnn5c4)C3)c2)c1 [Example 481]	34
FC(F)(F)Oc1ccc(-c2cnc(N[C@@H]3CCCC[C@H]3N[C@H]3CCCN(c4ccc5ncnn5c4)C3)o2)cc1 [Example 482]	107
COC(=O)Nc1cccc(-c2cnc(N[C@@H]3CCCC[C@H]3N[C@H]3CCCN(c4ccc5ncnn5c4)C3)o2)c1 [Example 483]	4
COC(=O)c1cccc(-c2cnc(N[C@@H]3CCCC[C@H]3N[C@H]3CCCN(c4ccc5ncnn5c4)C3)o2)c1 [Example 484]	312
CNC(=O)c1cccc(-c2cnc(N[C@@H]3CCCC[C@H]3N[C@H]3CCCN(c4ccc5ncnn5c4)C3)o2)c1 [Example 485]	58
O=C(NC1CC1)c1cccc(-c2cnc(N[C@@H]3CCCC[C@H]3N[C@H]3CCCN(c4ccc5ncnn5c4)C3)o2)c1 [Example 486]	78
O=C(Nc1cccc(-c2cnc(N[C@@H]3CCCC[C@H]3N[C@H]3CCCN(c4ccc5ncnn5c4)C3)o2)c1)C1CC1 [Example 487]	16
CC(C)(C)OC(=O)Nc1cccc(-c2cnc(N[C@@H]3CCCC[C@H]3N[C@H]3CCCN(c4ccc5ncnn5c4)C3)o2)c1 [Example 488]	699
Cc1nc2ccc(N3CCC[C@H](N[C@@H]4CCCC[C@H]4Nc4ncc(-c5cccc(C(N)=O)c5)o4)C3)cn2n1 [Example 489]	3
